Measured values: PubChem BioAssay AID2060500 (Molecular Pharmacology Branch, DTP, NCI, 2025)

System: 596521-263-R-J1-PDC complex spheroids, viability % of control
Test: Anticancer human tumor 596521-263-R-J1-PDC patient-derived soft tissue sarcoma cell line growth inhibition [GQUAD]
Conditions: for IC50: curve of first compound; for viability, T/C: stronger effect = lower value
How it was run: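 Tumor cells were grown as complex spheroids with HUVEC endothelial cells and mesenchymal stem cells as stroma. G-quadruplex stabilizers were combined with targeted agents over half-log dilutions from near the clinical Cmax, or from 10 microM.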
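Note: spheroids exposed to drugs for 7 days before viability reading.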
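Throughout, for viability, T/C: 100% = DMSO vehicle control viability.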

Nc1ccn(C2OC(CO)C(O)C2(F)F)c(=O)n1 (configuration not stated) + CN(C)c1ccc(Nc2c3ccc(NC(=O)CCN4CCCC4)cc3nc3cc(NC(=O)CCN4CCCC4)ccc23)cc1
IC50 (second compound 0.0316 µM): < 31.6 nM
IC50 (second compound 0.1 µM): < 31.6 nM
IC50 (second compound 0.316 µM): 121 nM
IC50 (second compound 1 µM): < 31.6 nM
IC50 (second compound 3.16 µM): < 31.6 nM
IC50 (second compound 10 µM): < 31.6 nM
viability, T/C (second compound 0.0316 µM, first compound 0.0316 µM): 48.3%
viability, T/C (second compound 0.0316 µM, first compound 0.1 µM): 39.2%
viability, T/C (second compound 0.0316 µM, first compound 0.316 µM): 40.5%
viability, T/C (second compound 0.0316 µM, first compound 1 µM): 37.3%
viability, T/C (second compound 0.0316 µM, first compound 3.16 µM): 44.5%
viability, T/C (second compound 0.0316 µM, first compound 10 µM): 40.2%
viability, T/C (second compound 0.1 µM, first compound 0.0316 µM): 53.9%
viability, T/C (second compound 0.1 µM, first compound 0.1 µM): 42.2%
viability, T/C (second compound 0.1 µM, first compound 0.316 µM): 40%
viability, T/C (second compound 0.1 µM, first compound 1 µM): 39.1%
viability, T/C (second compound 0.1 µM, first compound 3.16 µM): 44.1%
viability, T/C (second compound 0.1 µM, first compound 10 µM): 38.1%
viability, T/C (second compound 0.316 µM, first compound 0.0316 µM): 53.6%
viability, T/C (second compound 0.316 µM, first compound 0.1 µM): 46.6%
viability, T/C (second compound 0.316 µM, first compound 0.316 µM): 48.7%
viability, T/C (second compound 0.316 µM, first compound 1 µM): 49.8%
viability, T/C (second compound 0.316 µM, first compound 3.16 µM): 40.1%
viability, T/C (second compound 0.316 µM, first compound 10 µM): 39.4%
viability, T/C (second compound 1 µM, first compound 0.0316 µM): 46.7%
viability, T/C (second compound 1 µM, first compound 0.1 µM): 41.5%
viability, T/C (second compound 1 µM, first compound 0.316 µM): 39.3%
viability, T/C (second compound 1 µM, first compound 1 µM): 42.2%
viability, T/C (second compound 1 µM, first compound 3.16 µM): 39%
viability, T/C (second compound 1 µM, first compound 10 µM): 40.5%
viability, T/C (second compound 3.16 µM, first compound 0.0316 µM): 44.7%
viability, T/C (second compound 3.16 µM, first compound 0.1 µM): 44.2%
viability, T/C (second compound 3.16 µM, first compound 0.316 µM): 40.6%
viability, T/C (second compound 3.16 µM, first compound 1 µM): 42.5%
viability, T/C (second compound 3.16 µM, first compound 3.16 µM): 40.5%
viability, T/C (second compound 3.16 µM, first compound 10 µM): 35.6%
viability, T/C (second compound 10 µM, first compound 0.0316 µM): 42.4%
viability, T/C (second compound 10 µM, first compound 0.1 µM): 37.4%
viability, T/C (second compound 10 µM, first compound 0.316 µM): 33.4%
viability, T/C (second compound 10 µM, first compound 1 µM): 35.2%
viability, T/C (second compound 10 µM, first compound 3.16 µM): 38%
viability, T/C (second compound 10 µM, first compound 10 µM): 38.2%
